The text below walks through data of US9328099B2, “Cyanomethylpyrazole carboxamides as janus kinase inhibitors” (Merck Sharp & Dohme Corp., priority 2011, dated 2016).

Some results are limits rather than exact numbers.

By IC50 is commonly meant the concentration needed to halve the response being measured.

In test [1] the target is JAK2 (Homo sapiens (Human), UniProt O60674). Kind of test: Jak Biochemical HTRF Assay, JAK2. The settings on record: HTRF biochemical assay, GST-tagged catalytic domain; top concentration tested […]. An excerpt: (§1) Jak Biochemical HTRF Assay Protocol
(§2) Subsequent reagent additions employed an Agilent Bravo.
(In general: TR-FRET usually uses a lanthanide donor and a delayed reading to cut background.)

Test [2] concerns the target JAK1 (Homo sapiens (Human), UniProt P23458). The test is described as follows: Jak Biochemical HTRF Assay, JAK1. As to conditions: HTRF biochemical assay, GST-tagged catalytic domain; top concentration tested […]; read-out: JAK1 IC50.
Source text: as §1, §2

Chain of JAK1 (P23458 875-1153): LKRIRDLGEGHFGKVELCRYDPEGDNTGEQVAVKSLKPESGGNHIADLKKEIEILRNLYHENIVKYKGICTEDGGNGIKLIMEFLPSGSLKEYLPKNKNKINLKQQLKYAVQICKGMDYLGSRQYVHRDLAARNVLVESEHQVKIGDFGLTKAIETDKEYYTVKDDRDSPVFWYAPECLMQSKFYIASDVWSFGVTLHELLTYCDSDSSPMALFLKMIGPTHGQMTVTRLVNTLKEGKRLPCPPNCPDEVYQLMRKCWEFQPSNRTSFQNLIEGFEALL
Chain of JAK2 (O60674 849-1124): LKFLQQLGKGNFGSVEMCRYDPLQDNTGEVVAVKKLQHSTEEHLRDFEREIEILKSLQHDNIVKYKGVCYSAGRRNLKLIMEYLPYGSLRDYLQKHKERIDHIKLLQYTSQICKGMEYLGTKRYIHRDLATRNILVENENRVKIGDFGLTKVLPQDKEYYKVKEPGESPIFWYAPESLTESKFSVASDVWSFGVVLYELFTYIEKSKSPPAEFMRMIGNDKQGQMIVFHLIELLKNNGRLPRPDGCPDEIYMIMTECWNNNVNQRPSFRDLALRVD

Take `CS(=O)(=O)N1CC(CC#N)(n2cc(C(N)=O)c(Nc3ccccc3)n2)C1` [Example 37-16, 1-[3-(cyanomethyl)-1-(methylsulfonyl)azetidin-3-yl]-3-(phenylamino)-1H-pyrazole-4-carboxamide]: the IC50 was found to be 366 nM in test [1] and 79 nM in test [2].

For the molecule `N#CCC1(n2cc(C(N)=O)c(Nc3ccccc3)n2)CCCCC1` [Example 2-15, 1-[1-(cyanomethyl)cyclohexyl]-3-(phenylamino)-1H-pyrazole-4-carboxamide], the IC50 in test [1] amounted to 92 nM; in test [2] it was 10 nM.

`N#CCC1(n2cc(C(N)=O)c(Nc3ccc(F)cc3)n2)CCN(c2cncc(F)c2)CC1` [Example 3-5, 1-[4-(cyanomethyl)-1-(5-fluoropyridin-3-yl)piperidin-4-yl]-3-[(4-fluorophenyl)amino]-1H-pyrazole-4-carboxamide]: the IC50 was 4 nM in test [1] and 0.2 nM in test [2].

Take `CC(C)(C)OC(=O)N1CC[C@](CC#N)(n2cc(C(N)=O)c(Nc3ccc(F)cc3)n2)[C@@H](F)C1` (single isomer, unassigned) [Example 47-4, tert-butyl (3S,4R or 3R,4S)-4-{4-carbamoyl-3-[(4-fluorophenyl)amino]-1H-pyrazol-1-yl}-4-(cyanomethyl)-3-fluoropiperidine-1-carboxylate]: the IC50 in test [1] was determined as 83 nM; in test [2], 2 nM.

With `CCCCC(=O)N1CCC(CC#N)(n2cc(C(N)=O)c(Nc3ccccc3)n2)CC1` [Example 34-4, 1-[4-(cyanomethyl)-1-pentanoylpiperidin-4-yl]-3-(phenylamino)-1H-pyrazole-4-carboxamide], the IC50 in test [1] turned out to be 70 nM; in test [2], 12 nM.

`N#CCC1(n2cc(C(N)=O)c(Nc3ccnc(F)c3)n2)CCN(Cc2ccc(F)cc2)CC1` [Example 22-11, 1-[4-(cyanomethyl)-1-(4-fluorobenzyl)piperidin-4-yl]-3-[(2-fluoropyridin-4-yl)amino]-1H-pyrazole-4-carboxamide]: the IC50 in test [1] is 4 nM; in test [2], 0.1 nM.

For `COc1cccnc1N1CCC(CC#N)(n2cc(C(N)=O)c(Nc3ccc(F)cc3)n2)CC1` [Example 3-23, 1-[4-(cyanomethyl)-1-(3-methoxypyridin-2-yl)piperidin-4-yl]-3-[(4-fluorophenyl)amino]-1H-pyrazole-4-carboxamide], the values for the IC50 in test [1] and in test [2] were 559 nM and 33 nM, respectively.

Regarding `COC(=O)Cc1ccc(Nc2nn(C3(CC#N)CCN(C(=O)OC(C)(C)C)CC3)cc2C(N)=O)cc1` [Example 12-2, tert-butyl 4-(4-carbamoyl-3-{[4-(2-methoxy-2-oxoethyl)phenyl]amino}-1H-pyrazol-1-yl)-4-(cyanomethyl)piperidine-1-carboxylate], the figures for the IC50 in test [1] and in test [2] were 3 nM and 0.2 nM, respectively.

Turning to `CCCCNC(=O)N1CC(CC#N)(n2cc(C(N)=O)c(Nc3ccc(S(C)(=O)=O)cc3)n2)C1` [Example 38-43, 1-[1-(butylcarbamoyl)-3-(cyanomethyl)azetidin-3-yl]-3-{[4-(methylsulfonyl)phenyl]amino}-1H-pyrazole-4-carboxamide], the IC50 in test [1] stood at 322 nM; in test [2] it was 20 nM.

In the case of `N#CCC1(n2cc(C(N)=O)c(Nc3ccccc3)n2)CCN(Cc2ccc(Cl)cc2F)CC1` [Example 21-21, 1-[1-(4-chloro-2-fluorobenzyl)-4-(cyanomethyl)piperidin-4-yl]-3-(phenylamino)-1H-pyrazole-4-carboxamide], the figures for the IC50 in test [1] and in test [2] were 44 nM and 3 nM, respectively.

For `N#CCC1(n2cc(C(N)=O)c(Nc3ccnc(F)c3)n2)CCN(Cc2cccnn2)CC1` [Example 22-35, 1-[4-(cyanomethyl)-1-(pyridazin-3-ylmethyl)piperidin-4-yl]-3-[(2-fluoropyridin-4-yl)amino]-1H-pyrazole-4-carboxamide], the IC50 in test [1] came to 145 nM; in test [2], 6 nM.

Regarding `CC1(C(=O)N2CCC(CC#N)(n3cc(C(N)=O)c(Nc4ccnc(F)c4)n3)CC2)CCC1` [Example 34-60, 1-{4-(cyanomethyl)-1-[(1-methylcyclobutyl)carbonyl]piperidin-4-yl}-3-[(2-fluoropyridin-4-yl)amino]-1H-pyrazole-4-carboxamide], the figures for the IC50 in test [1] and in test [2] were 115 nM and 8 nM, respectively.

In the case of `N#CCC1(n2cc(C(N)=O)c(Nc3ccccc3)n2)CN(S(=O)(=O)c2ccco2)C1` [Example 37-17, 1-[3-(cyanomethyl)-1-(furan-2-ylsulfonyl)azetidin-3-yl]-3-(phenylamino)-1H-pyrazole-4-carboxamide], the IC50 in test [1] worked out at 247 nM; in test [2] it was 95 nM.

Regarding `N#CCC1(n2cc(C(N)=O)c(Nc3ccc(F)cc3)n2)CCN(c2cncc(C#N)c2)CC1` [Example 3-21, 1-[4-(cyanomethyl)-1-(5-cyanopyridin-3-yl)piperidin-4-yl]-3-[(4-fluorophenyl)amino]-1H-pyrazole-4-carboxamide], the IC50 was 20 nM in test [1] and 0.6 nM in test [2].

As to `N#CCC1(n2cc(C(N)=O)c(Nc3ccc(F)cc3)n2)CCN(Cc2ccco2)CC1` [Example 22-54, 1-[4-(cyanomethyl)-1-(furan-2-ylmethyl)piperidin-4-yl]-3-[(4-fluorophenyl)amino]-1H-pyrazole-4-carboxamide], the IC50 in test [1] stood at 28 nM; in test [2] it was 1 nM.

Take `N#CCC1(n2cc(C(N)=O)c(Nc3ccc(S(=O)(=O)C(F)F)cc3)n2)CCC(Nc2ccccc2)CC1` (stereo not drawn) [Example 40-88, Cis or trans 1-[1-(cyanomethyl)-4-(phenylamino)cyclohexyl]-3-({4-[(difluoromethyl)sulfonyl]phenyl}amino)-1H-pyrazole-4-carboxamide]: the IC50 was over 1500 nM in test [1] and 200 nM in test [2].

As to `N#CCC1(n2cc(C(N)=O)c(Nc3ccc(S(=O)(=O)C(F)F)cc3)n2)CCC(N2CCC(O)CC2)CC1` (stereo not drawn) [Example 40-43, Cis or trans 1-[1-(cyanomethyl)-4-(4-hydroxypiperidin-1-yl)cyclohexyl]-3-({4-[(difluoromethyl)sulfonyl]phenyl}amino)-1H-pyrazole-4-carboxamide], the figures for the concentration for half-maximal inhibition (IC50) in test [1] and in test [2] were 14 nM and 0.3 nM, respectively.

With `Cc1ccc(NC(=O)N2CC(CC#N)(n3cc(C(N)=O)c(Nc4ccc(S(C)(=O)=O)cc4)n3)C2)cc1` [Example 38-41, 1-{3-(cyanomethyl)-1-[(4-methylphenyl)carbamoyl]azetidin-3-yl}-3-{[4-(methylsulfonyl)phenyl]amino}-1H-pyrazole-4-carboxamide], the values for the IC50 in test [1] and in test [2] were 175 nM and 13 nM, respectively.

For `N#CC[C@]1(n2cc(C(N)=O)c(Nc3ccc(S(=O)(=O)C(F)F)cc3)n2)CC[C@H](N)CC1` [Example 41-3], the IC50 in test [1] came to 33 nM; in test [2] it was 1 nM.

Turning to `N#CCC1(n2cc(C(N)=O)c(Nc3ccc(S(=O)(=O)C(F)(F)F)cc3)n2)CCN(C(=O)Nc2ccc(C#N)cc2)CC1` [Example 38-45, 4-(4-carbamoyl-3-(4-(trifluoromethylsulfonyl)phenylamino)-1H-pyrazol-1-yl)-4-(cyanomethyl)-N-(4-cyanophenyl)piperidine-1-carboxamide], the IC50 stood at 0.5 nM in test [1] and 0.1 nM in test [2].

Take `CC(C)(C)OC(=O)N1CCC(CC#N)(n2cc(C(N)=O)c(Nc3cccc(-c4ccccc4O)c3)n2)CC1` [Example 15-11, tert-butyl 4-{4-carbamoyl-3-[(2′-hydroxybiphenyl-3-yl)amino]-1H-pyrazol-1-yl}-4-(cyanomethyl)piperidine-1-carboxylate]: the IC50 in test [1] was determined as 182 nM; in test [2] it was 13 nM.

Turning to `COCC(=O)N1CCC(CC#N)(n2cc(C(N)=O)c(Nc3ccnc(F)c3)n2)CC1` [Example 34-42, 1-[4-(cyanomethyl)-1-(methoxyacetyl)piperidin-4-yl]-3-[(2-fluoropyridin-4-yl)amino]-1H-pyrazole-4-carboxamide], the concentration for half-maximal inhibition (IC50) in test [1] is 96 nM; in test [2], 3 nM.

Regarding `N#CCC(=O)N1CCC(CC#N)(n2cc(C(N)=O)c(Nc3ccccc3)n2)CC1` [Example 36-1, 1-[1-(Cyanoacetyl)-4-(cyanomethyl)piperidin-4-yl]-3-(phenylamino)-1H-pyrazole-4-carboxamide], the results for the IC50 in test [1] and in test [2] were 77 nM and 5 nM, respectively.

In the case of `CN(C)S(=O)(=O)c1ccc(Nc2nn(C3(CC#N)CCN(C(=O)OC(C)(C)C)CC3)cc2C(N)=O)cc1` [Example 9-21, tert-butyl 4-(4-carbamoyl-3-{[4-(dimethylsulfamoyl)phenyl]amino}-1H-pyrazol-1-yl)-4-(cyanomethyl)piperidine-1-carboxylate], the IC50 in test [1] was 0.8 nM; in test [2], 0.3 nM.

Consider `N#CCC1(n2cc(C(N)=O)c(Nc3ccc(F)cc3)n2)CCN(C(=O)OCC2CCOCC2)CC1` [Example 30-21, tetrahydro-2H-pyran-4-ylmethyl 4-{4-carbamoyl-3-[(4-fluorophenyl)amino]-1H-pyrazol-1-yl}-4-(cyanomethyl)piperidine-1-carboxylate], for which the results for the half-maximal inhibitory concentration (IC50) in test [1] and in test [2] were 145 nM and 6 nM, respectively.

Consider `COc1cncc(N2CCC(CC#N)(n3cc(C(N)=O)c(Nc4ccc(F)cc4)n3)CC2)c1` [Example 3-37, 1-[4-(cyanomethyl)-1-(5-methoxypyridin-3-yl)piperidin-4-yl]-3-[(4-fluorophenyl)amino]-1H-pyrazole-4-carboxamide], for which the IC50 in test [1] is 17 nM; in test [2], 0.6 nM.

For the molecule `N#CCC1(n2cc(C(N)=O)c(Nc3ccnc(F)c3)n2)CCN(Cc2ccccc2)CC1` [Example 22-8, 1-[1-benzyl-4-(cyanomethyl)piperidin-4-yl]-3-[(2-fluoropyridin-4-yl)amino]-1H-pyrazole-4-carboxamide], the figures for the IC50 in test [1] and in test [2] were 6 nM and 0.1 nM, respectively.

On to `COC(=O)c1ccc(Nc2nn(C3(CC#N)CCN(C(=O)OC(C)(C)C)CC3)cc2C(N)=O)cc1` [Example 9-2, tert-butyl 4-(4-carbamoyl-3-{[4-(methoxycarbonyl)phenyl]amino}-1H-pyrazol-1-yl)-4-(cyanomethyl)piperidine-1-carboxylate], for which the IC50 in test [1] was determined as 9 nM; in test [2], 0.3 nM.
